Each molecule was assayed against T1, recombinant His-tag Y220C p53 DBD protein (Homo sapiens, UniProt P04637, Y220C) (assay: In vitro DNA binding activity assay (TR-FRET): binding of His-tag Y220C p53 DBD to biotin-labeled consensus DNA). Settings: SC150 = concentration to increase DNA binding by […], His-tag Y220C p53 DBD, biotin-labeled consensus DNA.
T1 construct: recombinant His-tag Y220C p53 DBD protein (amino acids #˜94-312)
Assay type: biochemical

| Compound | Y220C SC150 (μM) |
| --- | --- |
| CN1CC[C@@H](Nc2cccc3c2cc(-c2noc(CNC(=O)c4coc(C(C)(C)C)n4)n2)n3CC(F)(F)F)[C@@H](F)C1 [Compound 440B, 2-tert-butyl-N-{[3-(4-{[(3S,4R)-3-fluoro-1-methylpiperidin-4-yl]amino}-1-(2,2,2-trifluoroethyl)-1H-indol-2-yl)-1,2,4-oxadiazol-5-yl]methyl}-1,3-oxazole-4-carboxamide] | * (* = 0 μM ≤ SC150 < 0.1 μM) |
| CN1CC[C@@H](Nc2cccc3c2cc(-c2nc(CNC(=O)c4ccsc4)no2)n3CC(F)(F)F)[C@@H](F)C1 (racemic) [Compound 278B, (+/−)-N-{[5-(4-{[(3R,4S)-3-fluoro-1-methylpiperidin-4-yl]amino}-1-(2,2,2-trifluoroethyl)-1H-indol-2-yl)-1,2,4-oxadiazol-3-yl]methyl}thiophene-3-carboxamide] | * (* = 0 μM ≤ SC150 < 0.1 μM) |
| COCC1(c2cc(C(=O)NCc3nc(-c4cc5c(N[C@@H]6CCOC[C@@H]6F)cccc5n4CC(F)(F)F)no3)cs2)CC1 [Compound 507B, N-{[3-(4-{[(3R,4R)-3-fluorooxan-4-yl]amino}-1-(2,2,2-trifluoroethyl)-1H-indol-2-yl)-1,2,4-oxadiazol-5-yl]methyl}-5-[1-(methoxymethyl)cyclopropyl]thiophene-3-carboxamide] | * (* = 0 μM ≤ SC150 < 0.1 μM) |
| CN1CCC(Nc2cccc3c2cc(-c2nnc(CNC4CCNC4)s2)n3CC(F)(F)F)CC1 (stereo not drawn) [Compound 80B, N-(1-methylpiperidin-4-yl)-2-(5-{[(pyrrolidin-3-yl)amino]methyl}-1,3,4-thiadiazol-2-yl)-1-(2,2,2-trifluoroethyl)-1H-indol-4-amine] | **** (**** = 1 μM ≤ SC150 < 10 μM) |
| C[C@@H]1CN(C)CC[C@@H]1Nc1cccc2c1cc(-c1noc(CNC(=O)c3ccn(C(C)(C)C)c3)n1)n2CC(F)(F)F [Compound 513B, 1-tert-butyl-N-{[3-(4-{[(3R,4S)-1,3-dimethylpiperidin-4-yl]amino}-1-(2,2,2-trifluoroethyl)-1H-indol-2-yl)-1,2,4-oxadiazol-5-yl]methyl}-1H-pyrrole-3-carboxamide] | * (* = 0 μM ≤ SC150 < 0.1 μM) |
| CN1CCC(Nc2cccc3c2cc(-c2cc(CNc4ccc(S(C)(=O)=O)cc4)[nH]n2)n3CC(F)(F)F)CC1 [Compound 22B, 2-(5-{[(4-methanesulfonylphenyl)amino]methyl}-1H-pyrazol-3-yl)-N-(1-methylpiperidin-4-yl)-1-(2,2,2-trifluoroethyl)-1H-indol-4-amine] | ** (** = 0.1 μM ≤ SC150 < 0.5 μM) |
| CN1CC[C@@H](Nc2cccc3c2cc(-c2noc(CNC(=O)c4cnn(C5CCC(F)(F)C5)c4)n2)n3CC(F)(F)F)[C@@H](F)C1 (stereo partly drawn) [Compound 344B, 1-(3,3-difluorocyclopentyl)-N-{[3-(4-{1[(3S,4R)-3-fluoro-1-methylpiperidin-4-yl]amino}-1-(2,2,2-trifluoroethyl)-1H-indol-2-yl)-1,2,4-oxadiazol-5-yl]methyl}-1H-pyrazole-4-carboxamide] | * (* = 0 μM ≤ SC150 < 0.1 μM) |
| CN1CC[C@@H](Nc2cccc3c2cc(-c2noc(CNC(=O)C4CC4)n2)n3CC(F)(F)F)[C@@H](F)C1 (racemic) [Compound 171B, (+/−)-N-{[3-(4-{[(3R,4S)-3-fluoro-1-methylpiperidin-4-yl]amino}-1-(2,2,2-trifluoroethyl)-1H-indol-2-yl)-1,2,4-oxadiazol-5-yl]methyl}cyclopropanecarboxamide] | * (* = 0 μM ≤ SC150 < 0.1 μM) |
| CN1CC[C@@H](Nc2cccc3c2cc(-c2noc(CNC(=O)c4ccc(N5CCC(F)(F)CC5)cc4)n2)n3CC(F)(F)F)[C@@H](F)C1 [Compound 256B, 4-(4,4-difluoropiperidin-1-yl)-N-{[3-(4-{[(3S,4R)-3-fluoro-1-methylpiperidin-4-yl]amino}-1-(2,2,2-trifluoroethyl)-1H-indol-2-yl)-1,2,4-oxadiazol-5-yl]methyl}benzamide] | * (* = 0 μM ≤ SC150 < 0.1 μM) |
| O=C(NCc1nnc(-c2cc3c(N[C@@H]4CCNC[C@@H]4F)cccc3n2CC(F)(F)F)s1)OCc1ccccc1 [Compound 70B, benzyl N-{[5-(4-{[(3S,4R)-3-fluoropiperidin-4-yl]amino}-1-(2,2,2-trifluoroethyl)-1H-indol-2-yl)-1,3,4-thiadiazol-2-yl]methyl}carbamate] | * (* = 0 μM ≤ SC150 < 0.1 μM) |
| CN1CC[C@@H](Nc2cccc3c2cc(-c2noc(CNC(=O)c4csc(N5CCOCC5)n4)n2)n3CC(F)(F)F)[C@@H](F)C1 [Compound 465B, N-{[3-(4-{[(3S,4R)-3-fluoro-1-methylpiperidin-4-yl]amino}-1-(2,2,2-trifluoroethyl)-1H-indol-2-yl)-1,2,4-oxadiazol-5-yl]methyl}-2-(morpholin-4-yl)-1,3-thiazole-4-carboxamide] | * (* = 0 μM ≤ SC150 < 0.1 μM) |
| CC(C)C(=O)NCc1nnc(-c2cc3c(NC4CCN(C)CC4)cccc3n2CC(F)(F)F)s1 [Compound 57B, 2-methyl-N-[(5-{4-[(1-methylpiperidin-4-yl)amino]-1-(2,2,2-trifluoroethyl)-1H-indol-2-yl}-1,3,4-thiadiazol-2-yl)methyl]propanamide] | ** (** = 0.1 μM ≤ SC150 < 0.5 μM) |
| COC[C@H]1CCCN1c1nc(C(=O)NCc2nc(-c3cc4c(N[C@@H]5CCN(C)C[C@@H]5F)cccc4n3CC(F)(F)F)no2)cs1 [Compound 520B, N-{[3-(4-{[(3S,4R)-3-fluoro-1-methylpiperidin-4-yl]amino}-1-(2,2,2-trifluoroethyl)-1H-indol-2-yl)-1,2,4-oxadiazol-5-yl]methyl}-2-[(2R)-2-(methoxymethyl)pyrrolidin-1-yl]-1,3-thiazole-4-carboxamide] | * (* = 0 μM ≤ SC150 < 0.1 μM) |
| CN1CC[C@@H](Nc2cccc3c2cc(-c2noc(CNC(=O)c4csc(C5(C)CCOCC5)n4)n2)n3CC(F)(F)F)[C@@H](F)C1 [Compound 474B, N-{[3-(4-{[(3S,4R)-3-fluoro-1-methylpiperidin-4-yl]amino}-1-(2,2,2-trifluoroethyl)-1H-indol-2-yl)-1,2,4-oxadiazol-5-yl]methyl}-2-(4-methyloxan-4-yl)-1,3-thiazole-4-carboxamide] | * (* = 0 μM ≤ SC150 < 0.1 μM) |
| CN1CC[C@@H](Nc2cccc3c2cc(-c2noc(CNC(=O)c4ccsc4)n2)n3CC(F)(F)F)[C@@H](F)C1 (racemic) [Compound 176B, (+/−)-N-{[3-(4-{[(3R,4S)-3-fluoro-1-methylpiperidin-4-yl]amino}-1-(2,2,2-trifluoroethyl)-1H-indol-2-yl)-1,2,4-oxadiazol-5-yl]methyl}thiophene-3-carboxamide] | * (* = 0 μM ≤ SC150 < 0.1 μM) |

Other lines, results leading:

| Y220C SC150 (μM) | Compound |
| --- | --- |
| ** (** = 0.1 μM ≤ SC150 < 0.5 μM) | CN1CCC(Nc2cccc3c2cc(-c2ncc(CNC(=O)c4ccccc4)s2)n3CC(F)(F)F)CC1 [Compound 92B, N-[(2-{4-[(1-methylpiperidin-4-yl)amino]-1-(2,2,2-trifluoroethyl)-1H-indol-2-yl}-1,3-thiazol-5-yl)methyl]benzamide] |
| * (* = 0 μM ≤ SC150 < 0.1 μM) | CCN1CC[C@H](Nc2cccc3c2cc(-c2noc(CNC(=O)c4ccn(C(C)(C)C)c4)n2)n3CC(F)(F)F)[C@H](F)C1 [Compound 299B, 1-tert-butyl-N-{[3-(4-{[(3R,4S)-1-ethyl-3-fluoropiperidin-4-yl]amino}-1-(2,2,2-trifluoroethyl)-1H-indol-2-yl)-1,2,4-oxadiazol-5-yl]methyl}-1H-pyrrole-3-carboxamide] |
| ** (** = 0.1 μM ≤ SC150 < 0.5 μM) | O=C(NCc1nc(-c2cc3c(NCC4CC4)cccc3n2CC(F)(F)F)no1)C1CC1 [Compound 165B, N-[(3-{4-[(cyclopropylmethyl)amino]-1-(2,2,2-trifluoroethyl)-1H-indol-2-yl}-1,2,4-oxadiazol-5-yl)methyl]cyclopropanecarboxamide] |
| * (* = 0 μM ≤ SC150 < 0.1 μM) | CN1CCC(Nc2cccc3c2cc(-c2noc(CNC(=O)c4ccc(C#N)cc4)n2)n3CC(F)(F)F)CC1 [Compound 151B, 4-cyano-N-[(3-{4-[(1-methylpiperidin-4-yl)amino]-1-(2,2,2-trifluoroethyl)-1H-indol-2-yl}-1,2,4-oxadiazol-5-yl)methyl]benzamide] |
| * (* = 0 μM ≤ SC150 < 0.1 μM) | COC(C)(C)Cn1ccc(C(=O)NCc2nc(-c3cc4c(N[C@@H]5CCN(C)C[C@@H]5F)cccc4n3CC(F)(F)F)no2)c1 [Compound 251B, N-{[3-(4-{[(3S,4R)-3-fluoro-1-methylpiperidin-4-yl]amino}-1-(2,2,2-trifluoroethyl)-1H-indol-2-yl)-1,2,4-oxadiazol-5-yl]methyl}-1-(2-methoxy-2-methylpropyl)-1H-pyrrole-3-carboxamide] |
| * (* = 0 μM ≤ SC150 < 0.1 μM) | CN1CC[C@@H](Nc2cccc3c2cc(-c2noc(CNC(=O)c4ccn(CC(=O)O)c4)n2)n3CC(F)(F)F)[C@@H](F)C1 [Compound 238B, 2-[3-({[3-(4-{[(3S,4R)-3-fluoro-1-methylpiperidin-4-yl]amino}-1-(2,2,2-trifluoroethyl)-1H-indol-2-yl)-1,2,4-oxadiazol-5-yl]methyl}carbamoyl)-1H-pyrrol-1-yl]acetic acid] |

Same assay, conditions: concentration to increase DNA binding by […], incubated at either 27° C. or 29° C. for 60 min

| Compound | SC150 (μM) |
| --- | --- |
| NCc1ccc(-c2cc3c(NC4CCS(=O)(=O)CC4)cccc3n2CC(F)(F)F)cc1 [Compound 2A, 4-({2-[4-(aminomethyl)phenyl]-1-(2,2,2-trifluoroethyl)-1H-indol-4-yl}amino)-1λ^6-thiane-1,1-dione] | +++ (+++ = 5 μM ≤ SC150 < 10 μM) |
| CS(=O)(=O)c1ccc(NCc2ccc(-c3cc4c(NC5CCS(=O)(=O)CC5)cccc4n3CC(F)(F)F)cc2)cc1 [Compound 8A, 4-{[2-(4-{[(4-methanesulfonylphenyl)amino]methyl}phenyl)-1-(2,2,2-trifluoroethyl)-1H-indol-4-yl]amino}-1λ^6-thiane-, 1-dione] | + (+ = 0 μM ≤ SC150 < 2 μM) |
| O=S1(=O)CCC(Nc2cccc3c2cc(-c2ccc(CO)cc2)n3CC(F)(F)F)CC1 [Compound 27A, 4-({2-[4-(hydroxymethyl)phenyl]-1-(2,2,2-trifluoroethyl)-1H-indol-4-yl}amino)-1λ^6-thiane-1,1-dione] | ++ (++ = 2 μM ≤ SC150 < 5 μM) |

Reference: patent US11807644B2 (PMV Pharmaceuticals, Inc., priority 2020, dated 2023)
